# How the values were obtained:
# Test in all cases: relative viability (nuclei count vs DMSO), 5 days (fraction); higher = more cells survive
# [1] = compound: Cc1ccc(C(=O)Nc2cccc(C(F)(F)F)c2)cc1Nc1cncc(C(N)=O)c1 [ALW-II-49-7] + COc1cc2c(Oc3ccc(NC(=O)C4(C(=O)Nc5ccc(F)cc5)CC4)cc3F)ccnc2cc1OCCCN1CCOCC1 [Foretinib] (partner 0.25 µM)
# Method in brief: (§1)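 Lung cancer cell lines, seeded in 1536-well plates, were treated the following day by pin tool with a single drug or with five library-drug doses (not always all listed) in √10 steps on top of a fixed anchor-drug dose. Cells were fixed and nuclei stained in one step after 5 days, and nuclei were counted. Relative viability is the nuclei count for treated wells divided by that for vehicle wells, reported as medians of duplicate plates.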
# [2] = compound: C1CC1C(=O)NC2=NNC3=C2C=CC(=C3)C4=CC(=CC=C4)C(=O)NC5CC5 [XMD13-2] + NC(=O)Nc1cc(-c2cccc(F)c2)sc1C(=O)N[C@H]1CCCNC1 [AZD7762] (partner 0.2 µM)
# Method in brief: as §1
# [3] = compound: Cc1nc(Nc2ncc(C(=O)Nc3c(C)cccc3Cl)s2)cc(N2CCN(CCO)CC2)n1 [Dasatinib] + CS(=O)(=O)N1CCN(Cc2cc3nc(-c4cccc5[nH]ncc45)nc(N4CCOCC4)c3s2)CC1 [Pictilisib] (partner 1 µM)
# Method in brief: as §1
# [4] = compound: Cc1ccc(C(=O)Nc2cccc(C(F)(F)F)c2)cc1Nc1cncc(C(N)=O)c1 [ALW-II-49-7] + C[C@]1(O)C[C@@H](c2nc(-c3ccc4ccc(-c5ccccc5)nc4c3)c3c(N)nccn32)C1 [Linsitinib] (partner 1 µM)
# Method in brief: as §1
Cell Line,relative viability ([1]; first compound 0.08 µM),relative viability ([1]; first compound 0.253 µM),relative viability ([1]; first compound 0.8 µM),relative viability ([1]; first compound 2.53 µM),relative viability ([1]; first compound 8 µM),relative viability ([2]; first compound 0.05 µM),relative viability ([2]; first compound 0.5 µM),relative viability ([2]; first compound 1.581 µM),relative viability ([2]; first compound 5 µM),relative viability ([3]; first compound 0.005 µM),relative viability ([3]; first compound 0.01581 µM),relative viability ([3]; first compound 0.05 µM),relative viability ([3]; first compound 0.1581 µM),relative viability ([3]; first compound 0.5 µM),relative viability ([2]; first compound 0.1581 µM),relative viability ([4]; first compound 0.08 µM),relative viability ([4]; first compound 0.253 µM),relative viability ([4]; first compound 0.8 µM),relative viability ([4]; first compound 2.53 µM),relative viability ([4]; first compound 8 µM)
NCI-H1623,0.889,0.809,0.87,0.649,0.859,,,,,,,,,,,,,,,
NCI-H1648,,,,,,0.604,0.564,0.633,0.565,,,,,,,,,,,
NCI-H1650,1.04,1.18,1.08,1.05,1.13,,,,,0.481,0.277,0.259,0.215,0.199,,,,,,
NCI-H1792,,,,,,0.854,0.762,0.634,0.846,0.317,0.222,0.234,0.128,0.0699,0.78,0.402,0.338,0.421,0.321,0.371
NCI-H2009,1.18,1.31,1.17,0.895,1.11,,,,,0.705,0.503,0.41,0.193,0.124,,1.21,1.12,1.09,1.02,1
NCI-H2023,0.841,1.02,0.966,1.02,1.09,,,,,0.21,0.142,0.202,0.173,0.151,,0.653,0.579,0.697,0.679,0.645
NCI-H2170,0.908,1.12,1.01,0.999,1.01,0.957,1,0.884,0.859,0.286,0.234,0.257,0.265,0.203,1,,,,,
NCI-H2228,1.07,0.651,0.736,0.848,0.795,,,,,0.361,0.289,0.273,0.215,0.212,,1.17,0.677,0.8,0.644,0.611
NCI-H2342,1.19,0.986,1.07,1.03,0.981,0.494,0.516,0.455,0.598,,,,,,0.566,,,,,
SK-LU-1,0.894,0.895,0.923,0.797,0.592,,,,,0.369,0.312,0.244,0.201,0.174,,1.03,1.22,1.19,0.953,0.793
SK-MES-1,0.834,0.687,0.737,0.977,0.831,,,,,0.329,0.287,0.242,0.165,0.16,,1.03,1.14,1.13,0.952,0.901
SW 900,0.943,0.866,0.96,0.913,0.831,0.741,0.679,0.467,0.835,,,,,,0.587,,,,,
SW 1573,0.92,0.729,0.945,1.19,1.02,,,,,0.431,0.426,0.379,0.265,0.203,,0.867,0.906,0.903,0.795,0.768

# From the supplement of paper PMC10307832
